Test results reported in patent US20100041089A1, “IMPROVED METHOD FOR DETECTING CHEMICAL […]” (priority 2006, published 2010).

Test system: yeast genes (expressed mRNA)
Assay: DNA chip measurement of expressed mRNA of yeast genes after culture with a toxic chemical substance
Assay type: cell-based, Saccharomyces cerevisiae S288C
Conditions: for The level of expressed mRNA in the presence of chemical substance/The level of expressed mRNA in the absence of chemical substance: cultured two hours with substance; for level of expressed mRNA in the presence of chemical substance / level in the absence of chemical substance: cultured two hours with the chemical substance
How it was run: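 Expression is given as treated/untreated fluorescence ratio on a whole-genome yeast DNA chip, a ratio of two or more being significant. Log-phase S288C cultures in YPD at 25 °C received the chemical for 2 h at a dose that slows growth without killing. mRNA was reverse-transcribed with Cy3- or Cy5-dUTP.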

Substance: Na2As [(1)]
- The level of expressed mRNA in the presence of chemical substance/The level of expressed mRNA in the absence of chemical substance (yeast gene YJL151C): 1.0
- The level of expressed mRNA in the presence of chemical substance/The level of expressed mRNA in the absence of chemical substance (yeast gene YJL152W): 0.9
- The level of expressed mRNA in the presence of chemical substance/The level of expressed mRNA in the absence of chemical substance (yeast gene YJL161W): 1.7
- The level of expressed mRNA in the presence of chemical substance/The level of expressed mRNA in the absence of chemical substance (yeast gene YJL171C): 2.3
- The level of expressed mRNA in the presence of chemical substance/The level of expressed mRNA in the absence of chemical substance (yeast gene YJR008W): 1.6
- level of expressed mRNA in the presence of chemical substance / level in the absence of chemical substance (yeast gene YJR030C): 0.7
- The level of expressed mRNA in the presence of chemical substance/The level of expressed mRNA in the absence of chemical substance (yeast gene YJR054W): 0.8
- level of expressed mRNA in the presence of chemical substance / level in the absence of chemical substance (yeast gene YKL051W): 1.0
- The level of expressed mRNA in the presence of chemical substance/The level of expressed mRNA in the absence of chemical substance (yeast gene YKL071W): 8.3
- The level of expressed mRNA in the presence of chemical substance/The level of expressed mRNA in the absence of chemical substance (yeast gene YKL086W): 1.0
- level of expressed mRNA in the presence of chemical substance / level in the absence of chemical substance (yeast gene YKL097C): 0.9
- level of expressed mRNA in the presence of chemical substance / level in the absence of chemical substance (yeast gene YKL100C): 0.7
- The level of expressed mRNA in the presence of chemical substance/The level of expressed mRNA in the absence of chemical substance (yeast gene YKL151C): 1.2
- The level of expressed mRNA in the presence of chemical substance/The level of expressed mRNA in the absence of chemical substance (yeast gene YKL153W): 1.1
- The level of expressed mRNA in the presence of chemical substance/The level of expressed mRNA in the absence of chemical substance (yeast gene YKL195W): 0.8
- level of expressed mRNA in the presence of chemical substance / level in the absence of chemical substance (yeast gene YKR040C): 1.2
- The level of expressed mRNA in the presence of chemical substance/The level of expressed mRNA in the absence of chemical substance (yeast gene YKR091W): 1.5
- The level of expressed mRNA in the presence of chemical substance/The level of expressed mRNA in the absence of chemical substance (yeast gene YLR054C): 2.0
- The level of expressed mRNA in the presence of chemical substance/The level of expressed mRNA in the absence of chemical substance (yeast gene YLR149C): 1.4
- The level of expressed mRNA in the presence of chemical substance/The level of expressed mRNA in the absence of chemical substance (yeast gene YLR152C): 0.7
- The level of expressed mRNA in the presence of chemical substance/The level of expressed mRNA in the absence of chemical substance (yeast gene YLR194C): 2.1
- level of expressed mRNA in the presence of chemical substance / level in the absence of chemical substance (yeast gene YLR226W): 1.0
- The level of expressed mRNA in the presence of chemical substance/The level of expressed mRNA in the absence of chemical substance (yeast gene YLR324W): 0.7
- level of expressed mRNA in the presence of chemical substance / level in the absence of chemical substance (yeast gene YLR338W): 1.1
- The level of expressed mRNA in the presence of chemical substance/The level of expressed mRNA in the absence of chemical substance (yeast gene YLR350W): 1.2
- The level of expressed mRNA in the presence of chemical substance/The level of expressed mRNA in the absence of chemical substance (yeast gene YLR387C): 0.9
- level of expressed mRNA in the presence of chemical substance / level in the absence of chemical substance (yeast gene YLR392C): 1.1
- level of expressed mRNA in the presence of chemical substance / level in the absence of chemical substance (yeast gene YLR415C): 1.1
- level of expressed mRNA in the presence of chemical substance / level in the absence of chemical substance (yeast gene YLR427W): 0.6
- The level of expressed mRNA in the presence of chemical substance/The level of expressed mRNA in the absence of chemical substance (yeast gene YLR460C): 2.1
- level of expressed mRNA in the presence of chemical substance / level in the absence of chemical substance (yeast gene YML013W): 0.8
- level of expressed mRNA in the presence of chemical substance / level in the absence of chemical substance (yeast gene YML029W): 0.6
- level of expressed mRNA in the presence of chemical substance / level in the absence of chemical substance (yeast gene YML041C): 1.2
- level of expressed mRNA in the presence of chemical substance / level in the absence of chemical substance (yeast gene YML079W): 1.0
- The level of expressed mRNA in the presence of chemical substance/The level of expressed mRNA in the absence of chemical substance (yeast gene YML117W): 0.9
- The level of expressed mRNA in the presence of chemical substance/The level of expressed mRNA in the absence of chemical substance (yeast gene YMR009W): 2.3
- The level of expressed mRNA in the presence of chemical substance/The level of expressed mRNA in the absence of chemical substance (yeast gene YMR067C): 0.9
- level of expressed mRNA in the presence of chemical substance / level in the absence of chemical substance (yeast gene YMR068W): 0.9
- level of expressed mRNA in the presence of chemical substance / level in the absence of chemical substance (yeast gene YMR071C): 1.0
- The level of expressed mRNA in the presence of chemical substance/The level of expressed mRNA in the absence of chemical substance (yeast gene YMR090W): 6.9
- The level of expressed mRNA in the presence of chemical substance/The level of expressed mRNA in the absence of chemical substance (yeast gene YMR095C): 1.1
- The level of expressed mRNA in the presence of chemical substance/The level of expressed mRNA in the absence of chemical substance (yeast gene YMR097C): 1.5
- The level of expressed mRNA in the presence of chemical substance/The level of expressed mRNA in the absence of chemical substance (yeast gene YMR102C): 1.0
- The level of expressed mRNA in the presence of chemical substance/The level of expressed mRNA in the absence of chemical substance (yeast gene YMR107W): 5.0
- level of expressed mRNA in the presence of chemical substance / level in the absence of chemical substance (yeast gene YMR160W): 0.8
- The level of expressed mRNA in the presence of chemical substance/The level of expressed mRNA in the absence of chemical substance (yeast gene YMR180C): 1.2
- The level of expressed mRNA in the presence of chemical substance/The level of expressed mRNA in the absence of chemical substance (yeast gene YMR184W): 1.3
- The level of expressed mRNA in the presence of chemical substance/The level of expressed mRNA in the absence of chemical substance (yeast gene YMR191W): 1.3
- The level of expressed mRNA in the presence of chemical substance/The level of expressed mRNA in the absence of chemical substance (yeast gene YMR295C): 1.7
- The level of expressed mRNA in the presence of chemical substance/The level of expressed mRNA in the absence of chemical substance (yeast gene YMR316W): 3.2
- level of expressed mRNA in the presence of chemical substance / level in the absence of chemical substance (yeast gene YNL026W): 0.7
- The level of expressed mRNA in the presence of chemical substance/The level of expressed mRNA in the absence of chemical substance (yeast gene YNL044W): 1.3
